The source of these data is patent US11807650B2, “NMDA receptor modulators and uses thereof” (Novartis AG, priority 2016, dated 2023).

Structures can show the parent of a compound that is named as a salt. Some results are limits rather than exact numbers.

T1 sequence (O15399 28-1336, other chains not shown): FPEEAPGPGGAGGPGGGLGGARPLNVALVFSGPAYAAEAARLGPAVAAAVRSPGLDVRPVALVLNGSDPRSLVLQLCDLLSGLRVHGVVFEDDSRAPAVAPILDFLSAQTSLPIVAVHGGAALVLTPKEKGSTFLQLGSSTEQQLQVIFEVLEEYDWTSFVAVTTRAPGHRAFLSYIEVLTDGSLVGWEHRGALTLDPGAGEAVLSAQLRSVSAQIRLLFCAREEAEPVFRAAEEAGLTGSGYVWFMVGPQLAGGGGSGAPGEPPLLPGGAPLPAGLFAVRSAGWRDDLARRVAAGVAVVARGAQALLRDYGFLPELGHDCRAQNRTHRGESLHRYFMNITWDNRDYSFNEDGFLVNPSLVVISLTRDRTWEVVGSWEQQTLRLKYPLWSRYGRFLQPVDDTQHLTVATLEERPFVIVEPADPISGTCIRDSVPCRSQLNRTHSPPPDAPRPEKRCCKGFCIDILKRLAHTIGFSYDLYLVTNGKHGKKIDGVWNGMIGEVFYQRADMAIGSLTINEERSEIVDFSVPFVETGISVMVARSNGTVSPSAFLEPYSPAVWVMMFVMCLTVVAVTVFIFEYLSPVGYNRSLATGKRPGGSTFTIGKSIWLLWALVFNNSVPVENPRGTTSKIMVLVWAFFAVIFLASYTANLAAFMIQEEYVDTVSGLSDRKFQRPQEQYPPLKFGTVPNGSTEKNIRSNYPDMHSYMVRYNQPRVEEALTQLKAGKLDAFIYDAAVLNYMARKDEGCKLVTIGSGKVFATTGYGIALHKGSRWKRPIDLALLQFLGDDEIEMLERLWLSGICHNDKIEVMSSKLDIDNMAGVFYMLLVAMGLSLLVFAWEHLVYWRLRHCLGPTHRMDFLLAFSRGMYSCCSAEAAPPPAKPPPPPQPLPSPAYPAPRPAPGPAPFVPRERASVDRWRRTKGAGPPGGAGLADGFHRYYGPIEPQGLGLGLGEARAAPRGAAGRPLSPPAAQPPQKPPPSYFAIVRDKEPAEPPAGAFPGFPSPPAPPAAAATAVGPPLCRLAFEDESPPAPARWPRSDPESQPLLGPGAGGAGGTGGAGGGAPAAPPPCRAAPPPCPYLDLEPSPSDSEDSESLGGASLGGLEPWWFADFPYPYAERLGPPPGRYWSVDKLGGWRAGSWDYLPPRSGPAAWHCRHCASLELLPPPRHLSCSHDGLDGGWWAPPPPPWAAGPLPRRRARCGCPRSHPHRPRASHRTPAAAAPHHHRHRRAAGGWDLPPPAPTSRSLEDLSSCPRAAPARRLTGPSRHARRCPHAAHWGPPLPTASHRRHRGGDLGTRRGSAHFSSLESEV

The experiment concerns the target T1, human GRIN1 (transcript variant NR1-3) and GRIN2D expressed in Xenopus oocytes (Homo sapiens, UniProt O15399).
T1 construct: GenScript (GRIN2D synthesis) SC115601; host or cells: Xenopus oocytes injected with cRNA (1 GluN1 : 2 GluN2)
Briefly: NR2D oocyte potentiation assay (two-electrode voltage clamp). Type of experiment: cell-based. The settings on record: 10 uM test compound; glutamate and glycine 10 μM each; holding potential −40 mV. Put shortly:
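Xenopus oocytes were defolliculated with collagenase, then injected with 50 nL of cRNA encoding human GluN1 (NR1-3 variant) and GluN2D mixed 1:2 and kept 72 h at 16° C. Two-electrode voltage clamp at −40 mV recorded currents; after 10 μM glutamate plus 10 μM glycine reached plateau, test compound was added until a new plateau formed.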
As to `CC(C)(C)c1ccc(-c2nc3n(c(=O)c2C#N)C[C@@H](CF)CS3)cn1` [Example 131, (S)-8-(6-(tert-butyl)pyridin-3-yl)-3-(fluoromethyl)-6-oxo-3,4-dihydro-2H,6H-pyrimido[2,1-b][1,3]thiazine-7-carbonitrile], the activation at 10 µM is greater than 1000%.

`CC(C)(C)c1ccc(-c2nc3n(c(=O)c2C#N)C[C@H](CF)CS3)cn1` [Example 132, (R)-8-(6-(tert-butyl)pyridin-3-yl)-3-(fluoromethyl)-6-oxo-3,4-dihydro-2H,6H-pyrimido[2,1-b][1,3]thiazine-7-carbonitrile]: the activation at 10 µM fell in the range of 100 to 500%.

`C[C@H]1CSc2nc(-c3ccc(C(C)(C)N(C)C)nc3)c(C#N)c(=O)n2C1` [Example 133, (R)-8-(6-(2-(dimethylamino)propan-2-yl)pyridin-3-yl)-3-methyl-6-oxo-3,4-dihydro-2H,6H-pyrimido[2,1-b][1,3]thiazine-7-carbonitrile]: the “NR2D Oocyte % Potentiation @ 10 uM” value is on record as “Inhibitor”.

As for `C[C@@H]1CSc2nc(-c3ccc(C(C)(C)N(C)C)nc3)c(C#N)c(=O)n2C1` [Example 134, (S)-8-(6-(2-(dimethylamino)propan-2-yl)pyridin-3-yl)-3-methyl-6-oxo-3,4-dihydro-2H,6H-pyrimido[2,1-b][1,3]thiazine-7-carbonitrile], the activation at 10 µM was less than 10%.

With `CC1CSc2cc(-c3cnc(C4(C)CC4)c(F)c3)c(C#N)c(=O)n2C1` (stereo not shown) [Example 135, 8-(5-fluoro-6-(1-methylcyclopropyl)pyridin-3-yl)-3-methyl-6-oxo-3,4-dihydro-2H,6H-pyrido[2,1-b][1,3]thiazine-7-carbonitrile], the activation at 10 µM was greater than 1000%.

On to `CC1(c2ncc(-c3cc4n(c(=O)c3C#N)CCCS4)cc2F)CC1` [Example 136, 8-[5-fluoro-6-(1-methyl-cyclopropyl)pyridin-3-yl]-6-oxo-2H,3H,4H,6H-pyrido [2,1-b][1,3] thiazine-7-carbonitrile], for which the activation at 10 µM is greater than 1000%.

`CC(C)(C)c1ncc(-c2nc3n(c(=O)c2C#N)C[C@@H](CO)CS3)cn1` [Example 137, (S)-8-(2-(tert-butyl)pyrimidin-5-yl)-3-(hydroxymethyl)-6-oxo-3,4-dihydro-2H,6H-pyrimido[2,1-b][1,3]thiazine-7-carbonitrile]: the activation at 10 µM was 100 to 500%.

`CC(C)(C)c1ncc(-c2nc3n(c(=O)c2C#N)C[C@H](CO)CS3)cn1` [Example 138, (R)-8-(2-(tert-butyl)pyrimidin-5-yl)-3-(hydroxymethyl)-6-oxo-3,4-dihydro-2H,6H-pyrimido[2,1-b][1,3]thiazine-7-carbonitrile]: the activation at 10 µM was greater than 1000%.

Take `C[C@H]1CSc2nc(-c3cnc(C(C)(C)C)c(O)c3)c(C#N)c(=O)n2C1` [Example 139, (R)-8-(6-(tert-butyl)-5-hydroxypyridin-3-yl)-3-methyl-6-oxo-3,4-dihydro-2H,6H-pyrimido[2,1-b][1,3]thiazine-7-carbonitrile]: the activation at 10 µM is greater than 1000%.

For `C[C@@H]1CSc2nc(-c3cnc(C(C)(C)C)c(O)c3)c(C#N)c(=O)n2C1` [Example 140, (S)-8-(6-(tert-butyl)-5-hydroxypyridin-3-yl)-3-methyl-6-oxo-3,4-dihydro-2H,6H-pyrimido[2,1-b][1,3]thiazine-7-carbonitrile], the activation at 10 µM was 500 to 1000%.

In the case of `CC(C)(C)c1ncc(-c2nc3n(c(=O)c2C#N)C[C@@H](CF)CS3)cn1` [Example 141, (S)-8-(2-(tert-butyl)pyrimidin-5-yl)-3-(fluoromethyl)-6-oxo-3,4-dihydro-2H,6H-pyrimido[2,1-b][1,3]thiazine-7-carbonitrile], the activation at 10 µM was in the range of 500 to 1000%.

Take `CC(C)(C)c1ncc(-c2nc3n(c(=O)c2C#N)C[C@H](CF)CS3)cn1` [Example 142, (R)-8-(2-(tert-butyl)pyrimidin-5-yl)-3-(fluoromethyl)-6-oxo-3,4-dihydro-2H,6H-pyrimido[2,1-b][1,3]thiazine-7-carbonitrile]: the activation at 10 µM was 500 to 1000%.

As to `CC(C)(C)c1ccc(-c2nc3n(c(=O)c2C#N)CC(C(F)(F)F)CS3)cn1` (stereo not shown) [Example 143, 8-(6-(tert-butyl)pyridin-3-yl)-6-oxo-3-(trifluoromethyl)-3,4-dihydro-2H,6H-pyrimido[2,1-b][1,3]thiazine-7-carbonitrile], the activation at 10 µM was 100 to 500%.

Consider `CC(C)(C)OC(=O)NCC1CSc2nc(-c3ccc(C(C)(C)C)nc3)c(C#N)c(=O)n2C1` (stereo not shown) [Example 144, tert-butyl ((8-(6-(tert-butyl)pyridin-3-yl)-7-cyano-6-oxo-3,4-dihydro-2H,6H-pyrimido[2,1-b][1,3]thiazin-3-yl)methyl)carbamate], for which the activation at 10 µM was greater than 1000%.

Consider `CC(C)(C)c1ccc(-c2nc3n(c(=O)c2C#N)CC(CN)CS3)cn1` (stereo not shown) [Example 145, 3-(aminomethyl)-8-(6-(tert-butyl)pyridin-3-yl)-6-oxo-3,4-dihydro-2H,6H-pyrimido[2,1-b][1,3]thiazine-7-carbonitrile hydrochloride], for which the activation at 10 µM lay within 10 to 100%.

For the compound `CC(=O)NCC1CSc2nc(-c3cnc(C(C)(C)C)c(F)c3)c(C#N)c(=O)n2C1` (stereo not shown) [Example 146, N-((8-(6-(tert-butyl)-5-fluoropyridin-3-yl)-7-cyano-6-oxo-3,4-dihydro-2H,6H-pyrimido[2,1-b][1,3]thiazin-3-yl)methyl)acetamide], the activation at 10 µM is greater than 1000%.

Turning to `CCOC(=O)NCC1CSc2nc(-c3cnc(C(C)(C)C)c(F)c3)c(C#N)c(=O)n2C1` (stereo not shown) [Example 147, ethyl ((8-(6-(tert-butyl)-5-fluoropyridin-3-yl)-7-cyano-6-oxo-3,4-dihydro-2H,6H-pyrimido[2,1-b][1,3]thiazin-3-yl)methyl)carbamate], the activation at 10 µM was greater than 1000%.

Consider `CC1CSc2nc(-c3ccc(C45CC(C4)C5)nc3)c(C#N)c(=O)n2C1` (stereo not shown) [Example 148, 8-(6-(bicyclo[1.1.1]pentan-1-yl)pyridin-3-yl)-3-methyl-6-oxo-3,4-dihydro-2H,6H-pyrimido[2,1-b][1,3]thiazine-7-carbonitrile], for which the activation at 10 µM was in the range of 100 to 500%.

Turning to `CC1CSc2nc(-c3cccnc3C34CC(C3)C4)c(C#N)c(=O)n2C1` (stereo not shown) [Example 149, 8-(2-(bicyclo[1.1.1]pentan-1-yl)pyridin-3-yl)-3-methyl-6-oxo-3,4-dihydro-2H,6H-pyrimido[2,1-b][1,3]thiazine-7-carbonitrile], the activation at 10 µM was less than 10%.

Consider `CC1CSc2nc(-c3ccc(C45CC(C4)C5)nc3C34CC(C3)C4)c(C#N)c(=O)n2C1` (stereo not shown) [Example 150, 8-(2,6-di(bicyclo[1.1.1]pentan-1-yl)pyridin-3-yl)-3-methyl-6-oxo-3,4-dihydro-2H,6H-pyrimido[2,1-b][1,3]thiazine-7-carbonitrile], for which the “NR2D Oocyte % Potentiation @ 10 uM” value is recorded as “Inhibitor”.

For the compound `CC1CSc2nc(-c3ccc(C(C)(C)CF)nc3)c(C#N)c(=O)n2C1` (stereo not shown) [Example 151, 8-(6-(1-fluoro-2-methylpropan-2-yl)pyridin-3-yl)-3-methyl-6-oxo-3 4-dihydro-2H,6H-pyrimido[2,1-b][1,3]thiazine-7-carbonitrile], the activation at 10 µM lay within 500 to 1000%.

As for `CC(C)(CF)c1ccc(-c2nc3n(c(=O)c2C#N)CCCS3)cn1` [Example 152, 8-(6-(1-fluoro-2-methylpropan-2-yl)pyridin-3-yl)-6-oxo-3,4-dihydro-2H,6H-pyrimido[2,1-b][1,3]thiazine-7-carbonitrile], the activation at 10 µM fell in the range of 100 to 500%.
